Reference: paper PMC6269873, “Substituted 3-Benzylcoumarins as Allosteric MEK1 Inhibitors: Design, Synthesis and Biological Evaluation as Antiviral Agents” (Molecules, 2013)
pIC50: −log10 of the molar value.

Assays:
phosphorylated MEK1 = phosphorylated MEK1 (Homo sapiens, UniProt Q02750); assay: MEK1 binding assay (HTRF, tracer displacement); settings: for inhibition at 2 µM: read-out: % binding (2 µM); for inhibition at 20 µM: read-out: % binding (20 µM)
Procedure: The homogeneous time resolved fluorescence (HTRF) assay was performed on a Proxiplate-384 F plus solid back plate (Perkin Elmer, Waltham, MA. USA) with 5 nM GST tagged phosphorylated MEK1 (GST-MEK1), 2 nM europium-labeled anti-GST antibody (Eu-anti-GST), 20 nM kinase tracer 236 and test compound at a variety of concentrations. In the reaction mixture, GST-MEK1 forms a complex with the Eu-anti-GST and the tracer. Excitation of europium (the donor) using a 340-nm excitation filter results in energy transfer to the fluorophore of the tracer. This energy transfer is detected by an increase in the fluorescence emission of the tracer at 665 nm and a decrease in the fluorescence emission of europium at 615 nm. The FRET ratio was calculated by dividing the emission signal at 665 nm by the emission signal at 615 nm. A competitor compound such as a MEK inhibitor replaces the tracer from the complex and decreases the FRET ratio accordingly. The plate was incubated in dark at room temperature for 30 min before measuring the fluorescent emission of each well at 665 and 615 nm using a 340-nm excitation filter, 100-µs delay time, and 200-µs integration time, on a PHERAStar plate reader (BMG Labtech, Durham, NC, USA). […] Data shown as %Inhibition normalized to AZD6244 at 100 µM.

Sequence of phosphorylated MEK1 (Q02750 whole entry): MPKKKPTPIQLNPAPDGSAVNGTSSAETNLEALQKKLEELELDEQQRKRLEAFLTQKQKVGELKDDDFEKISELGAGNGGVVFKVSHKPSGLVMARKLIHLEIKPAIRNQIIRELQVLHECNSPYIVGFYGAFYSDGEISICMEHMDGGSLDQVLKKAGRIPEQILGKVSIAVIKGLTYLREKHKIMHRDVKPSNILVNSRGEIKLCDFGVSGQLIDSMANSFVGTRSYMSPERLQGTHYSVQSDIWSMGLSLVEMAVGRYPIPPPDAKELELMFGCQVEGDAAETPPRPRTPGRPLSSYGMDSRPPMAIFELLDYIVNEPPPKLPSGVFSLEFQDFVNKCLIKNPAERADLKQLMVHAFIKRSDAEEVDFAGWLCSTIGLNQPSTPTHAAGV

| Structure (SMILES) | melting point [°C] | inhibition at 2 µM (phosphorylated MEK1) [%] | inhibition at 20 µM (phosphorylated MEK1) [%] | binding affinity (in words) (phosphorylated MEK1) | pIC50 (phosphorylated MEK1; HTRF binding to GST tagged phosphorylated MEK1, read-out: IC50) |
| --- | --- | --- | --- | --- | --- |
| CCN(CC)C(=O)Oc1ccc2c(C)c(Cc3ccccc3)c(=O)oc2c1 [Compound 20, 3-Benzyl-4-methyl-2-oxo-2H-chromen-7-yl diethylcarbamate] | 109 | 15.5 | 20 | – | – |
| CCN(CC)C(=O)Oc1ccc2c(C)c(Cc3ccc(F)cc3)c(=O)oc2c1 [Compound 24, 3-(4-Fluorobenzyl)-4-methyl-2-oxo-2H-chromen-7-yl diethylcarbamate] | 101 to 102 | 22.3 | 27.8 | – | – |
| CCCCC(=O)Oc1ccc2c(CCC)c(Cc3ccccc3)c(=O)oc2c1 [Compound 51, 3-Benzyl-2-oxo-4-propyl-2H-chromen-7-yl pentanoate] | 78 to 79 | 29.5 | 42.5 | – | – |
| CCCc1c(Cc2ccccc2)c(=O)oc2cc(OC(=O)c3ccccc3)ccc12 [Compound 65, 3-Benzyl-2-oxo-4-propyl-2H-chromen-7-yl benzoate] | 120 | 32.6 | 37.1 | – | – |
| CCc1c(Cc2ccccc2)c(=O)oc2cc(OC(=O)C(C)(C)C)ccc12 [Compound 57, 3-Benzyl-4-ethyl-2-oxo-2H-chromen-7-yl pivalate] | 105 to 106 | 6.61 | 21 | – | – |
| CC(=O)Oc1cc2oc(=O)c(Cc3ccccc3)c(C)c2cc1Cl [Compound 27, 3-Benzyl-6-chloro-4-methyl-2-oxo-2H-chromen-7-yl acetate] | 190 | 30.6 | 30.8 | – | – |
| CCc1c(Cc2ccc(F)cc2)c(=O)oc2cc(OC(=O)C(C)(C)C)ccc12 [Compound 59, 4-Ethyl-3-(4-fluorobenzyl)-2-oxo-2H-chromen-7-yl pivalate] | 103 to 104 | 45.9 | 23.4 | inactive | – |
| O=c1cc(CCl)c2ccc(O)cc2o1 [Compound 4i, 4-(Chloromethyl)-7-hydroxy-2H-chromen-2-one] | 166 to 167 | 33.3 | 22.4 | – | – |
| Cc1c(Cc2ccccc2)c(=O)oc2cc(OC(=O)C(C)(C)C)ccc12 [Compound 55, 3-Benzyl-4-methyl-2-oxo-2H-chromen-7-yl pivalate] | 157 to 158 | 14.6 | 14.8 | – | – |
| COc1ccc2cc(C(=O)c3ccccc3)c(=O)oc2c1 [Compound 86, 3-benzoyl-7-methoxycoumarin] | 149 to 150 | 7.96 | -8.83 | – | – |
| CCCc1c(Cc2ccccc2)c(=O)oc2cc(OC(=O)CC)ccc12 [Compound 37, 3-Benzyl-2-oxo-4-propyl-2H-chromen-7-yl propionate] | 120 to 121 | 19.4 | 38.8 | – | – |
| Cc1c(Cc2ccccc2)c(=O)oc2cc(OC(=O)c3ccccc3)c(Cl)cc12 [Compound 63, 3-Benzyl-6-chloro-4-methyl-2-oxo-2H-chromen-7-yl benzoate] | 133 to 135 | 33.3 | 28 | – | – |
| Cc1c(Cc2ccccc2)c(=O)oc2cc(OC(=O)c3ccccc3)ccc12 [Compound 62, 3-Benzyl-4-methyl-2-oxo-2H-chromen-7-yl benzoate] | 149 to 150 | 4.07 | 31.1 | – | – |
| CCC(=O)Oc1cc2oc(=O)c(Cc3ccccc3)c(C)c2cc1Cl [Compound 34, 3-Benzyl-6-chloro-4-methyl-2-oxo-2H-chromen-7-yl propionate] | 124 to 126 | 70 | 72.4 | – | 6.49 |
| CCCCC(=O)Oc1ccc2c(C)c(Cc3ccccc3)c(=O)oc2c1 [Compound 48, 3-Benzyl-4-methyl-2-oxo-2H-chromen-7-yl pentanoate] | 110 to 111 | 18.8 | 21.2 | – | – |
